Data: patent US10434186B2, “Functionalized linear ligands and complexes thereof” (LUMIPHORE, INC., priority 2014, dated 2019)
Structures can show the parent of a compound that is named as a salt.

What was measured:
[1] = Eu(III) complex of the ligand; cited from earlier work
[2] = Molar extinction coefficient from absorption spectrum in 0.1 M TRIS buffer; format: physicochemical
Method: This corresponds to 1.218×10^−6 moles of ligand in 50 mL and c=2.436×10^−5 M. A=ϵcl, at λmax, A=0.42853 at 327 nm. […] This corresponds to 2.472×10^−6 moles of ligand in 50 mL and c=4.945×10^−5 M. A=ϵcl; at λmax, A=0.96915 at 315 nm.

[3] = in 0.5 M H2SO4; cited from earlier work

For `O=C(NCCCN(CCCCN(CCCNC(=O)c1cccc(=O)n1O)C(=O)c1cccc(=O)n1O)C(=O)c1cccc(=O)n1O)c1cccc(=O)n1O` [3,4,3-LI(1,2-HOPO)], the “quantum yield of Eu(III) complex” value [1] is given as about 20%.

In the case of `Cl.NCCOCCNC(=O)C(CCCN(CCCNC(=O)c1cccc(=O)n1O)C(=O)c1cccc(=O)n1O)N(CCCNC(=O)c1cccc(=O)n1O)C(=O)c1cccc(=O)n1O` (centres unmarked) [Compound 2-8], the “ϵ280/ϵ327 ratio for protein labelling” value ([2]; 0.1 M TRIS buffer pH 7.4) is reported as 3.11, the “extinction coefficient ϵ at 327 nm (λmax)” value ([2]; 0.1 M TRIS buffer pH 7.4, 1 cm cuvette, based on CHN) is reported as ~17,595 M^−1 cm^−1 and the “extinction coefficient at 280 nm” value ([2]; 0.1 M TRIS buffer pH 7.4, 280 nm) is reported as about 5655 M⁻¹ cm⁻¹.

For `C=C[C@H]1C[N@@]2CC[C@H]1C[C@H]2[C@H](O)c1ccnc2ccc(OC)cc12` [Quinine Sulfate], the “reference quantum yield Φref” value [3] is given as 0.546.
